Values after ≈ are worked out from the molar mass of the structure shown. Where two headings read alike, the source gives them in different places. Residues, ends and D or L forms follow the SMILES beside them.
Columns and labels:
[1] = system: Staphylococcus aureus (ATCC 33592) Methicillin resistant Genatmicin resistant; experiment: microbe, parasite or virus in culture; type: cell-based; details: read-out: Minimum inhibitory concentration (MIC)
Procedure: (§1) Antibacterial assay against various Gram-positive and Gram-negative strains of bacteria was performed by the serial two-fold dilution method according to the previously reported procedure, [36]. The antibacterial assays were repeated thrice and the averages of these MIC values were reported.

[2] = system: Staphylococcus aureus (ATCC 700698 MRSA); experiment: microbe, parasite or virus in culture; type: cell-based; details: read-out: Minimum inhibitory concentration (MIC)
Procedure: as §1

[3] = system: Pseudomonas aeruginosa (ATCC BAA-427); experiment: microbe, parasite or virus in culture; type: cell-based; details: read-out: Minimum inhibitory concentration (MIC)
Procedure: as §1

[4] = system: Staphylococcus aureus (BAA-44)MDR; experiment: microbe, parasite or virus in culture; type: cell-based; details: BAA44; Staphylococcus aureus (BAA-44) MDR; averages of three repeats; read-out: Minimum inhibitory concentration (MIC)
Procedure: as §1

[5] = system: Staphylococcus aureus (ATCC 25923); experiment: microbe, parasite or virus in culture; type: cell-based; details: read-out: Minimum inhibitory concentration (MIC)
Procedure: as §1

[6] = system: Staphylococcus aureus (ATCC 29213); experiment: microbe, parasite or virus in culture; type: cell-based; details: read-out: Minimum inhibitory concentration (MIC)
Procedure: as §1

[7] = system: Escherichia coli (ATCC 9637); experiment: microbe, parasite or virus in culture; type: cell-based; details: read-out: Minimum inhibitory concentration (MIC)
Procedure: as §1

[8] = system: Klebsiella pneumoniae (ATCC 27736); experiment: microbe, parasite or virus in culture; type: cell-based; details: read-out: Minimum inhibitory concentration (MIC)
Procedure: as §1

[9] = system: Escherichia coli (ATCC 25922); experiment: microbe, parasite or virus in culture; type: cell-based; details: read-out: Minimum inhibitory concentration (MIC)
Procedure: as §1

[10] = system: Staphylococcus aureus (ATCC 700699 MRSA); experiment: microbe, parasite or virus in culture; type: cell-based; details: read-out: Minimum inhibitory concentration (MIC)
Procedure: as §1

[11] = system: Bacillus subtilis (ATCC 6633); experiment: microbe, parasite or virus in culture; type: cell-based; details: read-out: Minimum inhibitory concentration (MIC)
Procedure: as §1

S. aureus (ATCC 25923) = type: cell-based, Staphylococcus aureus; details: ATCC 25923, 1 h
Procedure: (§2) E. coli ATCC25922 was grown to 10^6 CFU/ml in fresh MH broth with various divalent and monovalent salts at their physiological concentrations. Serial dilutions of chrysophsin-1 and its variants prepared with the same MH broth were added to the E. coli ATCC 25922 suspensions. The bacteria were incubated at 37 °C in a shaking incubator for 18 h and the MIC values of individual peptides against E. coli ATCC 25922 were determined. Thermal tolerance of Chrysophsin-1 and its variants was checked by incubating the peptides at 4 °C, 60 °C and 90 °C for 1 h prior to MIC determination. The antibacterial activity in presence of serum was carried out by adding a final concentration of 10% fetal bovine serum in the assay diluents containing 0.4% BSA, 0.02% glacial acetic acid. The subsequent steps in both the experiments were consistent with the MIC determination method.

E. coli ATCC 25922 [12] = experiment: Synergy with conventional antibiotics, checkerboard titration; type: cell-based, Escherichia coli
Procedure: The checkerboard titration method was followed to check the synergy of peptides with other antibiotics. First, 2-fold serial dilutions of the antibiotics and antimicrobial peptides were prepared. Subsequently, 50 μl each of different concentrations of antibiotics and of antimicrobial peptides was mixed and added into 100 μl of log phase bacteria culture in a 96-well plate. The plates were then incubated at 37 °C for 24 h. The fractional inhibitory concentration (FIC) index (FICI) was calculated as follows[39]: FICI=(MICofdrugAincombination)/(MICofdrugAalone)+(MICofdrugBincombination)/(MICofdrugB): FICI < 0.5 is considered to indicate synergy; 0.5 < FICI < 1.0 is considered additive; 1.0 < FICI < 4.0 is considered indifferent; and FICI > 4.0 is considered antagonism.

[13] = system: Candida albicans (ATCC 10231); experiment: microbe, parasite or virus in culture; type: cell-based; details: ATCC 10231, 48 h; read-out: Minimum inhibitory concentration (MIC)
Procedure: (§3) The anti- fungal activity of peptides was performed according to the standard micro broth dilution technique as per NCCLS guidelines. These plates were incubated in a moist chamber at 35 °C, and an absorbance at 492 nm was recorded on a VersaMax microplate reader after 48 h for C. albicans ATCC 10231 and C. parapsilosis ATCC 22019 and 72 h for C. neoformans.

[14] = system: Candida parapsilosis (ATCC 22019); experiment: microbe, parasite or virus in culture; type: cell-based; details: ATCC 22019, 48 h; read-out: Minimum inhibitory concentration (MIC)
Procedure: as §3

Cryptococcus neoformans = experiment: microbe, parasite or virus in culture; type: cell-based; details: 72 h; read-out: Minimum inhibitory concentration (MIC)
Procedure: as §3

E. coli ATCC 25922 [15] = type: cell-based, Escherichia coli; details: ATCC 25922, 18 h
Procedure: as §2

E. coli (ATCC 25922) = type: cell-based, Escherichia coli; details: ATCC 25922, 1 h
Procedure: as §2

[16] = system: Sporothrix schenckii (Patient isolates); experiment: microbe, parasite or virus in culture; type: cell-based; details: 48 h; read-out: Minimum inhibitory concentration (MIC)
[17] = ATCC33592, Staphylococcus aureus (ATCC 33592), methicillin and gentamicin resistant, averages of three repeats
[18] = Staphylococcus aureus (ATCC 700698 MRSA), averages of three repeats
[19] = ATCCBAA427, Pseudomonas aeruginosa (ATCC BAA-427), averages of three repeats
[20] = ATCC25923, Staphylococcus aureus (ATCC 25923), averages of three repeats
[21] = ATCC29213, Staphylococcus aureus (ATCC 29213), averages of three repeats
[22] = ATCC9637, Escherichia coli (ATCC 9637), averages of three repeats
[23] = ATCC27736, Klebsiella pneumoniae (ATCC 27736), averages of three repeats
[24] = ATCC25922, Escherichia coli (ATCC 25922), averages of three repeats
[25] = Staphylococcus aureus (ATCC 700699 MRSA), averages of three repeats
[26] = ATCC6633, Bacillus subtilis (ATCC 6633), averages of three repeats

CNC(C)C1CCC(N)C(OC2C(N)CC(N)C(OC3OCC(C)(O)C(NC)C3O)C2O)O1 (stereo not shown) [Gentamicin, reference compound]
MIC [1, 17]: > 86.8 µM
MIC [2, 18]: > 86.8 µM
MIC [3, 19]: 1.35 µM (≈ 0.645 µg/mL)
MIC [4]: > 86.8 µM
MIC [5, 20]: 0.67 µM (≈ 0.32 µg/mL)
MIC [6, 21]: 1.35 µM (≈ 0.645 µg/mL)
MIC [7, 22]: 5 µM (≈ 2.39 µg/mL)
MIC [8, 23]: 1.35 µM (≈ 0.645 µg/mL)
MIC [9, 24]: 2.5 µM (≈ 1.19 µg/mL)
MIC [10, 25]: > 86.8 µM
MIC [11, 26]: 1.2 µM (≈ 0.573 µg/mL)

CCn1cc(C(=O)O)c(=O)c2cc(F)c(N3CCNCC3)cc21 [Norfloxacin, reference compound]
MIC [1, 17]: 1.22 µM (≈ 0.39 µg/mL)
MIC [2, 18]: > 156 µM
MIC [3, 19]: 1.22 µM (≈ 0.39 µg/mL)
MIC [4]: 39.1 µM (≈ 12.5 µg/mL)
MIC [5, 20]: 1.22 µM (≈ 0.39 µg/mL)
MIC [6, 21]: 2.44 µM (≈ 0.779 µg/mL)
MIC [7, 22]: 0.15 µM (≈ 0.0479 µg/mL)
MIC [8, 23]: 0.15 µM (≈ 0.0479 µg/mL)
MIC [9, 24]: 0.3 µM (≈ 0.0958 µg/mL)
MIC [10, 25]: > 156 µM
MIC [11, 26]: 1.2 µM (≈ 0.383 µg/mL)

CC[C@H](C)[C@H](NC(=O)[C@H](C)NC(=O)CNC(=O)[C@H](CCCCN)NC(=O)[C@@H](NC(=O)[C@H](CC(C)C)NC(=O)[C@H](Cc1c[nH]c2ccccc12)NC(=O)CNC(=O)[C@H](Cc1ccccc1)NC(=O)[C@@H](N)Cc1ccccc1)[C@@H](C)CC)C(=O)N[C@@H](Cc1c[nH]cn1)C(=O)N[C@@H](C)C(=O)NCC(=O)N[C@@H](CCCCN)C(=O)N[C@@H](C)C(=O)N[C@H](C(=O)N[C@@H](Cc1c[nH]cn1)C(=O)N1CCC[C@H]1C(=O)N[C@@H](CC(C)C)C(=O)N[C@H](C(=O)N[C@@H](Cc1c[nH]cn1)C(=O)N[C@@H](CCCNC(=N)N)C(=O)N[C@@H](CCCNC(=N)N)C(=O)N[C@@H](CCCNC(=N)N)C(=O)N[C@@H](Cc1c[nH]cn1)C(N)=O)[C@@H](C)CC)[C@@H](C)CC [Peptide G18P-Chr-1] (H-FFGWLIKGAIHAGKAIHPLIHRRRH-NH2)
Antibacterial activity (MIC) after incubating peptide at 4 °C (S. aureus (ATCC 25923)): 3 µM
Antibacterial activity (MIC) after incubating peptide at 60 °C (S. aureus (ATCC 25923)): 33 µM
Antibacterial activity (MIC) after incubating peptide at 90 °C (S. aureus (ATCC 25923)): 33 µM
interaction of peptide with chloramphenicol (by FICI) (E. coli ATCC 25922 [12]): additivity
MIC [13]: 13.6 µM (≈ 39.9 µg/mL)
MIC [14]: 13.6 µM (≈ 39.9 µg/mL)
MIC (Cryptococcus neoformans): 13.6 µM (≈ 39.9 µg/mL)
Antibacterial activity (MIC) in the presence of 10% FBS (E. coli ATCC 25922 [15]): 17.2 µM
Antibacterial activity (MIC) in the presence of FeCl3 (E. coli ATCC 25922 [15]): 4.1 µM
Antibacterial activity (MIC) in the presence of KCl (E. coli ATCC 25922 [15]): 4.3 µM
Antibacterial activity (MIC) in the presence of MgCl2 (E. coli ATCC 25922 [15]): 8.6 µM
Antibacterial activity (MIC) in the presence of NH4Cl (E. coli ATCC 25922 [15]): 4.3 µM
Antibacterial activity (MIC) in the presence of NaCl (E. coli ATCC 25922 [15]): 4.3 µM
Antibacterial activity (MIC) after incubating peptide at 4 °C (E. coli (ATCC 25922)): 3 µM
Antibacterial activity (MIC) after incubating peptide at 60 °C (E. coli (ATCC 25922)): 8.3 µM
Antibacterial activity (MIC) after incubating peptide at 90 °C (E. coli (ATCC 25922)): 17.2 µM
MIC ([1]; ATCC 33592): 1.6 µM (≈ 4.69 µg/mL)
MIC ([2]; ATCC 700698): 3 µM (≈ 8.79 µg/mL)
MIC ([3]; ATCC BAA-427): 6.8 µM (≈ 19.9 µg/mL)
MIC ([5]; ATCC 25923): 3 µM (≈ 8.79 µg/mL)
MIC ([6]; ATCC 29213): 6.8 µM (≈ 19.9 µg/mL)
MIC ([7]; ATCC 9637): 3 µM (≈ 8.79 µg/mL)
MIC ([8]; ATCC 27736): 13.6 µM (≈ 39.9 µg/mL)
MIC ([9]; ATCC 25922): 3 µM (≈ 8.79 µg/mL)
MIC ([10]; ATCC 700699): 3 µM (≈ 8.79 µg/mL)
MIC ([11]; ATCC 6633): 3 µM (≈ 8.79 µg/mL)
MIC [16]: 27.2 µM (≈ 79.7 µg/mL)
